Measurements as given in patent US9723842B2, “Isothiazolinone biocides enhanced by zinc ions” (ARCH CHEMICALS, INC., priority 2006, dated 2017).
Where two headings read alike, the source gives them in different places.

Tested on: Ps. aeruginosa
Assay: Minimum inhibitory concentration against mono-cultures (microtitre plate, doubling dilutions)
Format: cell-based, Pseudomonas aeruginosa (NCIB 10421)
Settings: for MIC: Pseudomonas aeruginosa
Protocol: Pseudomonas aeruginosa (NCIB 10421) maintained on nutrient agar, were used to study the synergy between BIT and ZnCl2. Bacteria were grown to stationary phase (approximately 24 hours) in nutrient broth (approximately 10^9 organisms per ml). A 0.1% (v/v) inoculum was used to seed fresh medium and 100 μl of the inoculum was then added to each well of a microtitre plate, except for the first well which contained 200 μl. Using doubling dilutions, the concentration of the compounds under investigation were varied in each well along the ordinate axis. The presence or absence of growth was recorded by visual inspection after 24 hours incubation at 37° C. Bacteria were grown to stationary phase (approximately 24 hours) in nutrient broth (approximately 10^9 organisms per ml). A 0.1% (v/v) inoculum was used to seed fresh medium and 100 μl of the inoculum was then added to each well of a microtitre plate, except for the first well which contained 200 μl. Using doubling dilutions, the concentration of the compounds under investigation were varied in each well along the ordinate axis. The presence or absence of growth was recorded by visual inspection after 24 hours incubation at 37° C.

[1] = Comparative Example A, Table 10

| Structure (SMILES) | MIC (ppm) against Ps. aeruginosa [1] | MIC (ppm) against Ps. aeruginosa (Example 2, Table 2, column 1) | MIC (ppm) against Ps. aeruginosa (Example 2, Table 2, column 2) | MIC (ppm) against Ps. aeruginosa (Example 2, Table 2, column 3) | MIC (ppm) against Ps. aeruginosa (Example 2, Table 2, column 4) | MIC (ppm) against Ps. aeruginosa (Example 5, Table 8, column 1) | MIC (ppm) against Ps. aeruginosa (Example 5, Table 8, column 2) | MIC (ppm) against Ps. aeruginosa (Example 5, Table 8, column 3) | MIC (ppm) against Ps. aeruginosa (Example 5, Table 8, column 4) | other results |
| --- | --- | --- | --- | --- | --- | --- | --- | --- | --- | --- |
| O=c1[nH]sc2ccccc12 [BIT, 1,2-benzisothiazolin-3-one] | 30 ppm | 30 ppm | 42 ppm | 42 ppm | 30 ppm |  |  |  |  |  |
| [Cl-].[Cl-].[Zn+2] [ZnCl2, zinc chloride] |  | 300 ppm | 450 ppm | 375 ppm | 450 ppm | 525 ppm | 525 ppm | 600 ppm | 600 ppm | MIC (ppm) against Ps. aeruginosa (Example 3, Table 4, column 1): 294 ppm; MIC (ppm) against Ps. aeruginosa (Example 3, Table 4, column 2): 294 ppm; MIC (ppm) against Ps. aeruginosa (Example 3, Table 4, column 3): 210 ppm; MIC (ppm) against Ps. aeruginosa (Example 3, Table 4, column 4): 600 ppm; MIC (ppm) against Ps. aeruginosa (Example 4, Table 6, column 1): 210 ppm; MIC (ppm) against Ps. aeruginosa (Example 4, Table 6, column 2): 210 ppm; MIC (ppm) against Ps. aeruginosa (Example 4, Table 6, column 3): 450 ppm; MIC (ppm) against Ps. aeruginosa (Example 4, Table 6, column 4): 450 ppm |
| CCCCn1sc2ccccc2c1=O [BBIT, N-(n-butyl)-1,2-benzisothiazolin-3-one] |  |  |  |  |  | 315 ppm | 360 ppm | 42 ppm | 180 ppm |  |
| Cn1sccc1=O [MIT, 2-methyl-4-isothiazolin-3-one] |  |  |  |  |  |  |  |  |  | MIC (read-out: MIC (ppm) against Ps. aeruginosa, Example 4, Table 6, column 1): 9 µg/mL; MIC (read-out: MIC (ppm) against Ps. aeruginosa, Example 4, Table 6, column 2): 6 µg/mL; MIC (read-out: MIC (ppm) against Ps. aeruginosa, Example 4, Table 6, column 3): 10.5 µg/mL; MIC (read-out: MIC (ppm) against Ps. aeruginosa, Example 4, Table 6, column 4): 8 µg/mL |
| [Cl-].[Na+] [NaCl2, Sodium Chloride] | None detected (greater than 675) ppm |  |  |  |  |  |  |  |  |  |
